From patent publication US20250144066A1, “Prevention and Treatment of Parasitic Infections” (priority 2017, published 2025)
pEC50: −log10 of the molar value.

Key:
[1] = test system: human norovirus (NV, GT1); experiment: Human norovirus replicon, qPCR, HG23, secondary (17-14); assay type: cell-based; settings: Norovirus
Source text: (§1) Secondary testing was done with human norovirus.

[2] = test system: Influenza A virus H1N1 California/07/2009; experiment: microbe, parasite or virus in culture; assay type: cell-based
[3] = test system: human norovirus (NV, GT1); experiment: Human norovirus replicon, RNA Hybridization, HG23, primary (16-21); assay type: cell-based
Source text: as §1

[4] = Cell Titer-Glo toxicity in C-33A cells (HPV16-15); settings: human
MDCK = settings: Neutral Red (Toxicity)

With COc1c(C)c2c(c(O)c1C/C=C(\C)CCC(=O)O)C(=O)OC2 [EP1601, 6-(4-hydroxy-6-methoxy-7-methyl-3-oxo-1,3-dihydroisobenzofuran-5-yl)-4-methyl-hex-4-enoic acid] as the compound, how does the pEC50 [1] read?
The pEC50 was 6.66.

What about the EC90 [1] of the same compound?
The EC90 was 1100 nM.

What about the “activity against pandemic Influenza A H1N1 (California/07/2009)” value [2] of the same compound?
The value was “highly active”.

What about the pEC50 ([2]; Influenza A virus, H1N1, MDCK) of the same compound?
Its pEC50 is > 7.00.

And the pEC50 ([3]; Norovirus, GT1, HG23)?
Its pEC50 is 6.82.

And the EC90 ([3]; Norovirus, GT1, HG23)?
The EC90 was 1300 nM.

And the “activity against Norovirus” value ([3]; three in vitro tests (human and mouse norovirus))?
The value was “active”.

And the CC50 [4]?
The CC50 was > 150000 nM.

What about the CC50 (MDCK) of the same compound?
The CC50 was > 100000 nM.
